Non-standard residues stand in square brackets, D forms with d. Residues, ends and D or L forms follow the SMILES beside them. No end group written: not given here.
Target: ribonucleotide reductase enzyme of herpes simplex virus (Human herpesvirus 1, UniProt P08543)
Test: not given
Conditions: Nature 321:439-441 and 441-443 (1986); cited from earlier work

Row | Compound | inhibition in vitro of the activity of the enzyme
1 | Tyr Ala Gly Ala Val Val Asn Asp Leu | inhibited

Target: T1, ribonucleotide reductase enzyme of herpes simplex virus (Human herpesvirus 1, UniProt P08543)
T1 sequence (P08543 whole entry, looked up): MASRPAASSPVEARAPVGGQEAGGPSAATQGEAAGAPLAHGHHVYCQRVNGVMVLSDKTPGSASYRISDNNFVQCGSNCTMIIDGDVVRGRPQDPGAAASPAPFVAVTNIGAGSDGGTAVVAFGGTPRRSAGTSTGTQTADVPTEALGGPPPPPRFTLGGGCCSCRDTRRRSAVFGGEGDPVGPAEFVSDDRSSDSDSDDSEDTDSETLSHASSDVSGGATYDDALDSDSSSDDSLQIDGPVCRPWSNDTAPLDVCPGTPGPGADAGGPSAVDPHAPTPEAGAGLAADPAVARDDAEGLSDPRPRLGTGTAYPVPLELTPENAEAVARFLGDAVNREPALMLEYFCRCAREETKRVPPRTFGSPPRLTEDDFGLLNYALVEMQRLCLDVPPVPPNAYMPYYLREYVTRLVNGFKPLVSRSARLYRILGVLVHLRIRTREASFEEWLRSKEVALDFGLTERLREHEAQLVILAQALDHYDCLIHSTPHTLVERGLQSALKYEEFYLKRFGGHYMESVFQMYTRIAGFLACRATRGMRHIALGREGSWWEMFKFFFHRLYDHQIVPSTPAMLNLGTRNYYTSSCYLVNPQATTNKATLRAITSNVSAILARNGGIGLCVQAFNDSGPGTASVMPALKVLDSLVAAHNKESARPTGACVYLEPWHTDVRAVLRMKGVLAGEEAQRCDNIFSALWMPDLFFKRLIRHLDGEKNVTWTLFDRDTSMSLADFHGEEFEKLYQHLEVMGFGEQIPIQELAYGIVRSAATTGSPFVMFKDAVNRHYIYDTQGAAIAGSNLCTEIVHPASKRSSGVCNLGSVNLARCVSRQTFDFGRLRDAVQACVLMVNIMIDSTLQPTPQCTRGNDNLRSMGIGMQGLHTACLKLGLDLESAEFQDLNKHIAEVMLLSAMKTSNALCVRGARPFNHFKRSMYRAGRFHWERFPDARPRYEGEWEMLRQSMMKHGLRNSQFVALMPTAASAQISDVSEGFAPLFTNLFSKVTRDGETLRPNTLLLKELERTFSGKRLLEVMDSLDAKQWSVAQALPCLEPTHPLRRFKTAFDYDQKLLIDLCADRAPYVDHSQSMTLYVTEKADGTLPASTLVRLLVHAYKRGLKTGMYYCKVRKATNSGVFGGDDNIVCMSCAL
Test: not given
Conditions: Nature 321:439-441 and 441-443 (1986); cited from earlier work

Row | Compound | inhibition in vitro of the activity of the enzyme
2 | YGAVVNDL [8-desalanine homolog of the nonapeptide, disclosed by Dutia et al] | inhibited

Target: T2, Herpes Simplex Virus Ribonucleotide Reductase (HSV RR) (Human herpesvirus 2, UniProt P89462)
T2 construct: HSV RR was purified by Baby Hamster Kidney cells that were cultured with HSV2 Strain 186; made in house; host or cells: Baby Hamster Kidney cells infected with HSV2 Strain 186; crude enzyme per Huszar et al., then hydroxyapatite chromatography
Test: Assay of inhibition of HSV RR (reduction of tritiated cytidine-diphosphate to deoxyribo-cytidinediphosphate)
Assay type: biochemical, HSV2 Strain 186
Conditions: not given
Protocol: After infection, cells were harvested and lysed.
HSV RR activity was determined as the ability of the enzyme to catalyze the reduction of tritiated cytidine-diphosphate to deoxyribo-cytidinediphosphate in 30 minutes at 37° C. in the presence of dithiothreitol and MgCl2. Activity of oligopeptide inhibitors was determined by adding them to the reaction mix at the beginning of the incubation. Enzyme was not preincubated with inhibitor.
These were analyzed for amino acid composition and in some cases sequenced. Dry peptides were resuspended in 100 mM HEPES (pH 8.0) at about 2mM, relyophilized, and stored in aliquots at -80° C. Immediately prior to use they were rehydrated with distilled H2 O and centrifuged to remove any undissolved peptide.

T2 sequence (P89462 whole entry): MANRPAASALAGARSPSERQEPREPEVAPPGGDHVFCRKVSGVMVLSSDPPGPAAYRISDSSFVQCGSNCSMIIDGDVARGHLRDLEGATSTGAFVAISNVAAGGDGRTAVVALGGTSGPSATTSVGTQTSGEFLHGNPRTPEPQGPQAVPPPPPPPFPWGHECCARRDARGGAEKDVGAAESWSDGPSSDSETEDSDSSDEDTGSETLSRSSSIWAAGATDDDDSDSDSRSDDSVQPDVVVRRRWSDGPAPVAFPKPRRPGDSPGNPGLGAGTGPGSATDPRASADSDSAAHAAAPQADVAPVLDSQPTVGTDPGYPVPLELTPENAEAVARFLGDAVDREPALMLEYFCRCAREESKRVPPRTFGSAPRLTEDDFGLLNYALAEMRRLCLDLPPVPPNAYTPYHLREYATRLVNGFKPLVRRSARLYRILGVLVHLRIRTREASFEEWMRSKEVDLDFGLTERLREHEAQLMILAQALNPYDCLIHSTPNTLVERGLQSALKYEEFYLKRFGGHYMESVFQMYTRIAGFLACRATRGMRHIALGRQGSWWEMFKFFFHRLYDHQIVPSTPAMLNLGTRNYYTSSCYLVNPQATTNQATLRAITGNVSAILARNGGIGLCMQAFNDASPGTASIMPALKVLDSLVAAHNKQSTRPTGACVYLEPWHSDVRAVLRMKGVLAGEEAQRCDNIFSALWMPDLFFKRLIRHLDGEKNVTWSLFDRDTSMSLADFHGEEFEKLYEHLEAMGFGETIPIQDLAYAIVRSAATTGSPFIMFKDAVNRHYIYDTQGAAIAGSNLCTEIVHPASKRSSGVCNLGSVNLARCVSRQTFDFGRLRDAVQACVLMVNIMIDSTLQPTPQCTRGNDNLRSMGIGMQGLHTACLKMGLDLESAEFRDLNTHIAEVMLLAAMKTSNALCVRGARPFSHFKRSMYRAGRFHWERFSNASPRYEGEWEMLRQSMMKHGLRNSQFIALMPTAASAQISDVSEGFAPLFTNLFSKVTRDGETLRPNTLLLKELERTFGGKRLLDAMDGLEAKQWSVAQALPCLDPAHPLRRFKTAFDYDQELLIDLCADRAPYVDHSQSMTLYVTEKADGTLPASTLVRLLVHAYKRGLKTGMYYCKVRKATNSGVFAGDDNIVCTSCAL

Row | Compound | IC50
3 | CC(C)C[C@H](NC(=O)[C@H](CC(=O)O)NC(=O)[C@H](CC(N)=O)NC(=O)[C@@H](NC(=O)[C@@H](NC(=O)[C@H](C)NC(=O)CNC(=O)[C@@H](C)NC(=O)[C@@H](N)Cc1ccc(O)cc1)C(C)C)C(C)C)C(=O)O [Y dA G A V V N D L] | 210 µM

Same assay, conditions: 30 minutes at 37° C., dithiothreitol and MgCl2; enzyme not preincubated with inhibitor; read-out: IC50 (μM concentration of peptide producing 50% inhibition of enzyme activity)

Row | Compound | IC50
4 | CC(C)C[C@H](NC(=O)[C@H](CC(=O)O)NC(=O)[C@@H](CC(N)=O)NC(=O)[C@@H](NC(=O)[C@@H](NC(=O)[C@H](C)NC(=O)CNC(=O)[C@H](C)NC(=O)[C@@H](N)Cc1ccc(O)cc1)C(C)C)C(C)C)C(=O)O [Y A G A V V dN D L] | > 620 µM
5 | CC(C)C[C@H](NC(=O)[C@H](CC(=O)O)NC(=O)[C@H](CC(N)=O)NC(=O)[C@@H](NC(=O)[C@@H](NC(=O)[C@H](N)Cc1ccc(O)cc1)C(C)C)C(C)C)C(=O)O [dY V V N D L] (H-[dY]VVNDL-OH) | 30 µM
6 | CC(C)C[C@H](NC(=O)[C@H](CC(=O)O)NC(=O)[C@@H](CC(N)=O)NC(=O)[C@@H](NC(=O)[C@@H](NC(=O)[C@H](C)N)C(C)C)C(C)C)C(=O)O [A V V dN D L] (H-AVV[dN]DL-OH) | 460 µM
7 | CC(C)C[C@H](NC(=O)[C@H](CC(=O)O)NC(=O)[C@H](CC(N)=O)NC(=O)[C@@H](NC(=O)[C@@H](NC(=O)[C@H](C)NC(=O)[C@@H](C)NC(=O)[C@H](C)NC(=O)[C@@H](N)Cc1ccc(O)cc1)C(C)C)C(C)C)C(=O)O [Y A dA A V V N D L] (H-YA[dA]AVVNDL-OH) | 88 µM
8 | CC(C)C[C@H](NC(=O)[C@H](CC(=O)O)NC(=O)[C@H](CC(N)=O)NC(=O)[C@@H](NC(=O)[C@@H](NC(=O)[C@H](C)NC(=O)CNC(=O)[C@H](C)NC(=O)[C@H](N)Cc1ccc(O)cc1)C(C)C)C(C)C)C(=O)O [dY A G A V V N D L] | 40 µM
9 | CC(C)C[C@H](NC(=O)[C@H](CC(=O)O)NC(=O)[C@H](CC(N)=O)NC(=O)[C@@H](NC(=O)[C@@H](NC(=O)[C@@H](C)N)C(C)C)C(C)C)C(=O)O [dA V V N D L] (H-[dA]VVNDL-OH) | 90 µM
10 | CC(C)C[C@H](NC(=O)[C@H](CC(=O)O)NC(=O)[C@H](CC(N)=O)NC(=O)[C@H](NC(=O)[C@@H](NC(=O)[C@H](C)N)C(C)C)C(C)C)C(=O)O [A V dV N D L] (H-AV[dV]NDL-OH) | 600 µM
11 | CC(C)C[C@H](NC(=O)[C@@H](CC(=O)O)NC(=O)[C@H](CC(N)=O)NC(=O)[C@@H](NC(=O)[C@@H](NC(=O)[C@H](C)N)C(C)C)C(C)C)C(=O)O [A V V N dD L] (H-AVVN[dD]L-OH) | 520 µM
12 | CC(C)C[C@H](NC(=O)[C@H](CC(=O)O)NC(=O)[C@H](CC(N)=O)NC(=O)[C@@H](NC(=O)[C@@H](NC(=O)[C@@H](C)NC(=O)CNC(=O)[C@H](C)NC(=O)[C@@H](N)Cc1ccc(O)cc1)C(C)C)C(C)C)C(=O)O [Y A G dA V V N D L] | 72 µM

— patent US4837304A, “Inhibitor of ribonucleotide reductase” (Merck & Co., Inc., priority 1987, dated 1989)
